# From patent publication US20170158702A1, “MULTIVALENT RAS BINDING COMPOUNDS” (KYRAS THERAPEUTICS, INC., priority 2015, published 2017)
# Where a name gives a salt, the structure may show the parent alone.
# Columns and labels:
# Type in all cases: cell-based
# NCI-H460 = assay: Viability assay with NCI-H460 (CellTiter-Glo cytotoxicity assay, 72 h); conditions: NCI-H460 cell line, 72 h after compounds addition
# How it was run: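 NCI-H460 cells, RPMI 1640 + 10% FBS, seeded 1200/well and adhered overnight, then exposed to compounds at 9 points, 2-fold dilution, in triplicate, 0.5% DMSO final. Cellular ATP measured by CellTiter-Glo luminescence 72 h after addition.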
# MIA PaCa-2 = assay: Viability assay with MIA PaCa-2; conditions: MIA PaCa-2, viability assay per Example 57
# How it was run: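 MIA PaCa-2 cells were seeded at 1200/well, allowed to adhere overnight, then treated in triplicate with 9-point 2-fold compound dilutions at 0.5% final DMSO. Viability was measured as cellular ATP by CellTiter-Glo luminescence 72 h after compound addition.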
# HT-29 = assay: Viability assay with HT-29; conditions: HT-29, viability assay per Example 57
# Protocol: NCI-H460 (Epithelial lung tissue; carcinoma; large cell lung cancer) were cultured in RPMI Medium 1640 (Invitrogen-22400105) supplemented with 10% fetal bovine serum (FBS; Invitrogen-10099141). All the cell lines were maintained in a humidified incubator at 37° C. with 5% CO2. Cell culture media and supplements were purchased from Invitrogen, and tissue culture flasks were purchased from Corning, 96-well plates were purchased from Greiner. CellTiter-Glo Luminescent Cell Viability Assay kits were purchased from Promega (Promega-G7573), cells counter Vi-Cell was purchased from Beckman, D300e digital dispenser was purchased from Tecan, detection instrument Envision was purchased from PerkinElmer.
# Paclitaxel was purchased from SELLECK, test compounds, such as any one of the compounds disclosed herein, attained solubility in DMSO and when diluted into culture media. DMSO, solutions containing the test compounds, and culture media were warmed to 37° C. or room temperature for the solution preparation and dilutions.
# NCI-H460 Cell line were seeded in 96-well plates (1200/well) and allowed to adhere to overnight (100 uL/well), for drug treatments with 2 fold dilution, 9 dose points, triplicates or vehicle control, compound stock solutions were prepared in DMSO and use D300e digital dispenser to add compounds to the wells to give the indicated final drug concentrations. Final DMSO concentration was 0.5%. Cellular ATP concentrations were assessed by using the CellTiter-Glo Cell Viability Assay as per the manufacturer's instructions 72 h after compounds addition. Additional cells lines were assayed with any one of the compounds disclosed herein according to the procedures described for the viability assay with NCI-H460.
# A viability assay with HT-29 (Colorectal adenocarcinoma) was performed with compounds listed in Table 18 according to the procedures described in Example 57.
SMILES,EC50 (NCI-H460) [µM],EC50 (MIA PaCa-2) [µM],EC50 (HT-29) [µM]
NCCCn1cc(-c2ccc(OC(F)(F)F)cc2)c2cc(OC3CCN(Cc4ccccc4Cl)CC3)ccc21 [C242; HCl],5 to 10,5 to 10,5 to 10
COc1ccc(-n2c(=O)n(CCCN)c3ccc(CN4CCN(Cc5ccccc5Cl)CC4)cc32)cc1 [C200; HCl],5 to 10,5 to 10,5 to 10
COc1cc(OC)cc(C(C)(C)N2CCN(Cc3ccc4c(c3)c(-c3ccc(OC(F)(F)F)cc3CN)cn4CCCN)CC2)c1 [C285; HCl],≤ 5,≤ 5,≤ 5
NCc1cc(OC(F)(F)F)ccc1-c1cn(C2CCNCC2)c2ccc(CN3CCN(Cc4ccccc4Cl)CC3)cc12 [C254; HCl],≤ 5,≤ 5,≤ 5
COc1ccc(CN2CCN(Cc3ccc4c(c3)c(-c3ccc(OC(F)(F)F)cc3CN)cn4CCCN)CC2)cc1 [C266; HCl],≤ 5,≤ 5,≤ 5
NCCCn1cc(-c2ccc(OC(F)(F)F)cc2)c2cc(CN3CCN(Cc4ccc(Cl)c(Cl)c4)CC3)ccc21 [C138; HCl],≤ 5,≤ 5,≤ 5
COc1cc(OC)cc(OC2CCN(Cc3ccc4c(c3)c(-c3ccc(OC(F)(F)F)cc3CN)cn4CCCN)CC2)c1 [C281; HCl],≤ 5,≤ 5,≤ 5
CCC1CCN(Cc2ccc3c(c2)c(-c2ccc(C)cc2CN)cn3CCCN)CC1 [C256; HCl],5 to 10,5 to 10,5 to 10
FC(F)(F)Oc1ccc(-c2cn(CCCCN(c3ccccn3)c3ccccn3)c3ccc(CN4CCN(Cc5ccccc5Cl)CC4)cc23)cc1 [C205; Formic Acid],5 to 10,5 to 10,5 to 10
COc1cccc(CN2CCC(Cc3ccc4c(c3)c(-c3ccc(OC(F)(F)F)cc3CN)cn4CCCN)CC2)c1 [C291; HCl],≤ 5,≤ 5,≤ 5
COc1cc(CN2CCN(Cc3ccc4c(c3)c(-c3ccc(OC(F)(F)F)cc3CN)cn4C3CCNCC3)CC2)cc(OC)c1 [C275; HCl],≤ 5,≤ 5,≤ 5
NCCCn1cc(-c2ccc(OC(F)(F)F)cc2)c2c(CN3CCN(Cc4ccccc4Cl)CC3)cccc21 [C183; HCl],≤ 5,≤ 5,≤ 5
NCCCn1cc(-c2ccc(OC(F)(F)F)cc2CN)c2cc(CN3CCSCC3)ccc21 [C282; HCl],≤ 5,≤ 5,≤ 5
COc1cc(CN2CCN(S(=O)(=O)c3ccc4c(c3)c(-c3ccc(OC(F)(F)F)cc3CN)cn4CCCN)CC2)cc(OC)c1 [C240; Formic Acid],≤ 5,≤ 5,≤ 5
NCCCn1cc(-c2ccc(OC(F)(F)F)cc2CN)c2cc(CN3CCC4(CCN(Cc5ccccc5Cl)CC4)C3)ccc21 [C250; HCl],≤ 5,≤ 5,≤ 5
NCCc1cccc(-n2cc(-c3ccc(OC(F)(F)F)cc3)c3cc(CN4CCN(Cc5ccccc5Cl)CC4)ccc32)c1 [C235; Formic Acid],≤ 5,≤ 5,≤ 5
CCC1CCN(Cc2ccc3c(c2)c(-c2ccc(OC(F)(F)F)cc2)cn3CCCN)CC1 [C226; HCl],≤ 5,≤ 5,≤ 5
NCCCn1cc(-c2ccccc2CO)c2cc(CN3CCN(Cc4ccccc4Cl)CC3)ccc21 [C181; HCl],≤ 5,≤ 5,≤ 5
FC(F)(F)Oc1ccc(-c2cn(CC3CCCNC3)c3ccc(CN4CCN(Cc5ccccc5Cl)CC4)cc23)cc1 (stereo not drawn) [C230; HCl],≤ 5,≤ 5,≤ 5

SMILES,EC50 (NCI-H460) [µM],EC50 (MIA PaCa-2) [µM],EC50 (HT-29) [µM]
COc1ccc(-c2cn(CCCN)c3ccc(CN4CCN(Cc5ccccc5Cl)CC4)cc23)c(CNS(C)(=O)=O)c1 [C287; HCl],≤ 5,≤ 5,≤ 5
NCCCn1cc(-c2cc[nH]n2)c2cc(CN3CCN(Cc4ccccc4Cl)CC3)ccc21 [C190; HCl],5 to 10,5 to 10,5 to 10
Nc1ccc(Cn2cc(-c3ccc(OC(F)(F)F)cc3)c3cc(CN4CCN(Cc5ccccc5Cl)CC4)ccc32)cc1 [C220; Formic Acid],5 to 10,5 to 10,5 to 10
COc1cccc(CN(C)CCN(C)Cc2ccc3c(c2)c(-c2ccc(OC(F)(F)F)cc2CN)cn3CCCN)c1 [C296; HCl],≤ 5,≤ 5,≤ 5
NCCCn1cc(-c2c(F)cccc2C(N)=O)c2cc(CN3CCN(Cc4ccccc4Cl)CC3)ccc21 [C289; HCl],5 to 10,5 to 10,5 to 10
COc1cccc(CCCCN(C)Cc2ccc3c(c2)c(-c2ccc(OC(F)(F)F)cc2CN)cn3CCCN)c1 [C298; HCl],≤ 5,5 to 10,≤ 5
NCCCn1cc(-c2ccc(OC(F)(F)F)cc2)c2cc(CN3CCSCC3)ccc21 [C293; HCl],≤ 5,≤ 5,≤ 5
COc1ccc(-c2cn(CCCN)c3ccc(CN4CCN(Cc5ccccc5Cl)CC4)cc23)cn1 [C141; HCl],≤ 5,≤ 5,≤ 5
NCCCn1cc(-c2ccc(OC(F)(F)F)cc2)c2cc(CN3CCN(Cc4ccc(Cl)cc4)CC3)ccc21 [C137; HCl],≤ 5,≤ 5,≤ 5
Cc1cc(Cl)ccc1CN1CCN(Cc2ccc3c(c2)c(-c2ccc(OC(F)(F)F)cc2)cn3CCCN)CC1 [C139; HCl],≤ 5,≤ 5,≤ 5
COc1ncc(-c2cn(CCCN)c3ccc(CN4CCN(Cc5ccccc5Cl)CC4)cc23)cn1 [C143; HCl],5 to 10,5 to 10,5 to 10
NCCCn1cc(-c2ccc(OC(F)(F)F)cc2)c2cc(CN3CCN(Cc4ccc(Cl)cc4Cl)CC3)ccc21 [C135; HCl],≤ 5,≤ 5,≤ 5
NCc1cc(OC(F)(F)F)ccc1-c1cn(CC2CCNCC2)c2ccc(CN3CCN(Cc4ccccc4Cl)CC3)cc12 [C237; HCl],≤ 5,≤ 5,≤ 5
NCC(=O)NCc1ccc(-n2cc(-c3ccc(OC(F)(F)F)cc3)c3cc(CN4CCN(Cc5ccccc5Cl)CC4)ccc32)cn1 [C219; HCl],≤ 5,≤ 5,≤ 5
Cc1ncc(CN2CCN(Cc3ccc4c(c3)c(-c3ccc(OC(F)(F)F)cc3)cn4CCCN)CC2)n1C [C194; HCl],5 to 10,5 to 10,5 to 10
FC(F)(F)Oc1ccc(-c2cn(CC3CCNCC3)c3ccc(CN4CCC(Cc5ccccc5Cl)CC4)cc23)cc1 [C228; HCl],≤ 5,≤ 5,≤ 5
CC(C)(N)CCCn1cc(-c2ccc(OC(F)(F)F)cc2)c2cc(CN3CCN(Cc4ccccc4Cl)CC3)ccc21 [C132; Formic acid],≤ 5,≤ 5,≤ 5
NCc1cccc(-n2cc(-c3ccc(OC(F)(F)F)cc3)c3cc(CN4CCN(Cc5ccccc5Cl)CC4)ccc32)c1 [C150; Formic acid],≤ 5,≤ 5,≤ 5
NCCCn1cc(-c2ccc(OC(F)(F)F)cc2)c2cc(CN3CCN(Cc4ccc(C(F)(F)F)cc4)CC3)ccc21 [C136; HCl],≤ 5,≤ 5,≤ 5
